Patent US20050197338A1, “Substituted pyrazole urea compounds for the treatment of inflammation” (priority 2003, published 2005)

molecular target: T1, human IKK-2 (rhIKK-2 homodimer) (Homo sapiens, UniProt O14920); assay: IKK-2 Resin Enzyme Assay (Human IKK-2 Enzyme Assay); type: biochemical; conditions: human IKK-2, resin enzyme assay; read-out: IC50 (μM) hIKK-2
T1 construct: FLAG (DYKDDDDKD) (C); made in house; host or cells: insect cells (baculovirus, pFastBac)
T1 sequence (O14920 1-756): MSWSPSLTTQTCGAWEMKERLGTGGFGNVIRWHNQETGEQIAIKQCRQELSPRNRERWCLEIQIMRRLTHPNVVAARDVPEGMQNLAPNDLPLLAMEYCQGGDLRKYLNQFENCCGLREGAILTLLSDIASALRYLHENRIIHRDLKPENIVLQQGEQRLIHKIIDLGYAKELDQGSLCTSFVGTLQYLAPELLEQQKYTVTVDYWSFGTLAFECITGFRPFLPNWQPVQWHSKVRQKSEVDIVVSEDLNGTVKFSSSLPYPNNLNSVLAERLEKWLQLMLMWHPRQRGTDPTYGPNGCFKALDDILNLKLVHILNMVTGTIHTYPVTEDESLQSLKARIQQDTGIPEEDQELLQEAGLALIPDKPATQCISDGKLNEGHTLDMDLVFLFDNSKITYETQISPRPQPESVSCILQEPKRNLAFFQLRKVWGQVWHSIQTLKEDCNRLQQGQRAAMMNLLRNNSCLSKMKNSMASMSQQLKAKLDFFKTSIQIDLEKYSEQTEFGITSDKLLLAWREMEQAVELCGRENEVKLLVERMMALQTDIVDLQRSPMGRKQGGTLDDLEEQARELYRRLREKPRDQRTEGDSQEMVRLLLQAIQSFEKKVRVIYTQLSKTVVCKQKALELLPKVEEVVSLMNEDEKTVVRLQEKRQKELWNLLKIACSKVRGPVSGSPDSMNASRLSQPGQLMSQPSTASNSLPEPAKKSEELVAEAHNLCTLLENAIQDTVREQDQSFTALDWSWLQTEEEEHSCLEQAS
Procedure, shortened: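 C-terminally FLAG-tagged human IKK-2 homodimer, baculovirus-expressed in insect cells and anti-FLAG purified. Reaction mix: 5 μM biotinylated IκBα peptide (Ser32/Ser36 region), 1 μM ATP with [γ-33P]ATP, 2 mM MgCl2, 2 mM MnCl2, 10 mM NaF, 1 mM DTT, 25 mM HEPES pH 7.6. Incubated 30 min at 25 °C; IC50 derived.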

Row | IC50 [µM] | Compound
1 | > 20 | CCOc1cc(-n2cc(NC(N)=O)c(C(N)=O)n2)ccc1-c1ccc(O)cc1 [Example 274, 4-[(aminocarbonyl)amino]-1-(2-ethoxy-4′-hydroxy-1,1′-biphenyl-4-yl)-1H-pyrazole-3-carboxamide]
2 | 7.59 | CCc1cc(Br)ccc1N/N=C(\C#N)C(N)=O [Example 277, (2E)-2-[(4-bromo-2-ethylphenyl)hydrazono]-2-cyanoacetamide]
3 | 10.6 | CCc1cc(Br)ccc1-n1cc(NC(N)=O)c(C(N)=O)n1 [Example 281, 4-[(aminocarbonyl)amino]-1-(4-bromo-2-ethylphenyl)-1H-pyrazole-3-carboxamide]
4 | 12.6 | CCc1cc(-c2cccc(O)c2)ccc1-n1cc(NC(N)=O)c(C(N)=O)n1 [Example 282, 4-[(aminocarbonyl)amino]-1-(3-ethyl-3′-hydroxy-1,1′-biphenyl-4-yl)-1H-pyrazole-3-carboxamide]
5 | 0.431 | NC(=O)Nc1cn(-c2ccc([S+]([O-])C3CCCC3)cc2)nc1C(N)=O (centres unmarked) [Example 283, 1-(3-carbamoyl-1-(4-(cyclopentylsulfinyl)phenyl)-1H-pyrazol-4-yl)urea]
6 | 0.986 | NC(=O)Nc1cn(-c2ccc([S+]([O-])c3ccccn3)cc2)nc1C(N)=O (centres unmarked) [Example 284, 1-(3-carbamoyl-1-(4-(pyridin-2-ylsulfinyl)phenyl)-1H-pyrazol-4-yl)urea]
7 | 0.578 | NC(=O)Nc1cn(-c2ccc([S+]([O-])c3ccccc3O)cc2)nc1C(N)=O (centres unmarked) [Example 285, 1-(1-(4-(2-hydroxyphenylsulfinyl)phenyl)-3-carbamoyl-1H-pyrazol-4-yl)urea]
8 | 0.663 | NC(=O)Nc1cn(-c2ccc(S(=O)(=O)c3ccccn3)cc2)nc1C(N)=O [Example 286, 1-(3-carbamoyl-1-(4-(pyridin-2-ylsulfonyl)phenyl)-1H-pyrazol-4-yl)urea]
9 | 0.187 | NC(=O)Nc1cn(-c2ccc(S(=O)(=O)C3CCCC3)cc2)nc1C(N)=O [Example 287, 1-(3-carbamoyl-1-(4-(cyclopentylsulfonyl)phenyl)-1H-pyrazol-4-yl)urea]
10 | 0.252 | NC(=O)Nc1cn(-c2ccc(S(=O)(=O)c3ccccc3O)cc2)nc1C(N)=O [Example 288, 1-(1-(4-(2-hydroxyphenylsulfonyl)phenyl)-3-carbamoyl-1H-pyrazol-4-yl)urea]
11 | 10.6 | NC(=O)Nc1cn(-c2ccc(Sc3cccc(Cl)c3)cc2)nc1C(N)=O [Example 289, 1-(1-(4-(3-chlorophenylthio)phenyl)-3-carbamoyl-1H-pyrazol-4-yl)urea]
12 | 4.56 | NC(=O)Nc1cn(-c2ccc(Sc3ccc(Cl)cc3)cc2)nc1C(N)=O [Example 290, 1-(1-(4-(4-chlorophenylthio)phenyl)-3-carbamoyl-1H-pyrazol-4-yl)urea]
13 | 6.23 | CC(C)CCSc1ccc(-n2cc(NC(N)=O)c(C(N)=O)n2)cc1 [Example 291, 1-(3-carbamoyl-1-(4-(isopentylthio)phenyl)-1H-pyrazol-4-yl)urea]
14 | 0.656 | Cc1cc(-n2cc(NC(N)=O)c(C(N)=O)n2)ccc1-c1ccc(F)cc1OCC(N)=O [Example 296, 1-(2′-carbamoylmethoxy-4′-fluoro-2-methyl-biphenyl-4-yl)-4-ureido-1H-pyrazole-3-carboxylic acid amide]
15 | 1.94 | Cc1cc(-n2cc(NC(N)=O)c(C(N)=O)n2)ccc1Sc1ccc(F)cc1 [Example 297, 1-[4-(4-fluoro-phenylsulfanyl)-3-methyl-phenyl]-4-ureido-1H-pyrazole-3-carboxylic acid amide]
16 | 0.724 | Cc1cc(-n2cc(NC(N)=O)c(C(N)=O)n2)ccc1S(=O)(=O)c1ccc(F)cc1 [Example 298, 1-[4-(4-fluoro-benzenesulfonyl)-3-methyl-phenyl]-4-ureido-1H-pyrazole-3-carboxylic acid amide]
17 | 0.595 | COc1ccc(CNC(=O)c2nn(-c3cccc(O)c3)cc2NC(N)=O)cc1 [Example 299, 1-(3-hydroxy-phenyl)-4-ureido-1H-pyrazole-3-carboxylic acid 4-methoxy-benzylamide]
18 | 0.123 | NC(=O)Nc1cn(-c2ccc(S(N)(=O)=O)cc2)nc1C(N)=O [Example 301, 4-[(aminocarbonyl)amino]-1-[4-(aminosulfonyl)phenyl]-1H-pyrazole-3-carboxamide]

Row | IC50 [µM] | Compound
19 | 0.229 | Cc1cc(-n2cc(NC(N)=O)c(C(N)=O)n2)ccc1Cl [Example 302, 4-[(aminocarbonyl)amino]-1-(4-chloro-3-methylphenyl)-1H-pyrazole-3-carboxamide]
20 | 1.4 | NC(=O)Nc1cn(-c2ccc(C(=O)N3CCCCC3)cc2)nc1C(N)=O [Example 303, 4-[(aminocarbonyl)amino]-1-[4-(piperidin-1-ylcarbonyl)phenyl]-1H-pyrazole-3-carboxamide]
21 | 2.19 | Cc1cc(-n2cc(NC(N)=O)c(C(N)=O)n2)ccn1 [Example 322, 4-[(aminocarbonyl)amino]-1-(2-methylpyridin-4-yl)-1H-pyrazole-3-carboxamide]
22 | 0.21 | CCNC(=O)COc1cccc(-c2ccc(-n3cc(NC(N)=O)c(C(N)=O)n3)cc2)c1 [Example 335, 4-[(aminocarbonyl)amino]-1-{3′-[2-(ethylamino)-2-oxoethoxy]-1, 1′-biphenyl-4-yl}-1H-pyrazole-3-carboxamide]
23 | 0.42 | CCN(CC)C(=O)COc1cccc(-c2ccc(-n3cc(NC(N)=O)c(C(N)=O)n3)cc2)c1 [Example 336, 4-[(aminocarbonyl)amino]-1-{3′-[2-(diethylamino)-2-oxoethoxy]-1,1′-biphenyl-4-yl}-1H-pyrazole-3-carboxamide]
24 | 0.75 | NC(=O)Nc1cn(-c2ccc(B(O)O)cc2)nc1C(N)=O [Example 337, 4-{3-(aminocarbonyl)-4-[(aminocarbonyl)amino]-1H-pyrazol-1-yl}phenylboronic acid]
25 | 0.62 | NC(=O)CCc1cccc(-c2ccc(-n3cc(NC(N)=O)c(C(N)=O)n3)cc2)c1 [Example 338, 4-[(aminocarbonyl)amino]-1-[3′-(3-amino-3-oxopropyl)-1,1′-biphenyl-4-yl]-1H-pyrazole-3-carboxamide]
26 | > 20 | NC(=O)Nc1cn(-c2cccc(-c3ccccc3)c2)nc1C(N)=O [Example 339, 4-[(aminocarbonyl)amino]-1-(1,1′-biphenyl-3-yl)-1H-pyrazole-3-carboxamide]
27 | > 20 | Cc1cccc(-c2cccc(-n3cc(NC(N)=O)c(C(N)=O)n3)c2)c1 [Example 340, 4-[(aminocarbonyl)amino]-1-(3′-methyl-1,1′-biphenyl-3-yl)-1H-pyrazole-3-carboxamide]
28 | 0.984 | N#Cc1cccc(-c2cccc(-n3cc(NC(N)=O)c(C(N)=O)n3)c2)c1 [Example 341, 4-[(aminocarbonyl)amino]-1-(3′-cyano-1,1′-biphenyl-3-yl)-1H-pyrazole-3-carboxamide]
29 | > 20 | CCc1ccc(-c2cccc(-n3cc(NC(N)=O)c(C(N)=O)n3)c2)cc1 [Example 342, 4-[(aminocarbonyl)amino]-1-(4′-ethyl-1,1′-biphenyl-3-yl)-1H-pyrazole-3-carboxamide]
30 | 5.18 | COc1cccc(-c2cccc(-n3cc(NC(N)=O)c(C(N)=O)n3)c2)c1 [Example 343, 4-[(aminocarbonyl)amino]-1-(3′-methoxy-1,1′-biphenyl-3-yl)-1H-pyrazole-3-carboxamide]
31 | > 20 | COc1ccc(-c2cccc(-n3cc(NC(N)=O)c(C(N)=O)n3)c2)cc1 [Example 344, 4-[(aminocarbonyl)amino]-1-(4′-methoxy-1,1′-biphenyl-3-yl)-1H-pyrazole-3-carboxamide]
32 | > 20 | Cc1cc(F)ccc1-c1cccc(-n2cc(NC(N)=O)c(C(N)=O)n2)c1 [Example 345, 4-[(aminocarbonyl)amino]-1-(4′-fluoro-2′-methyl-1,1′-biphenyl-3-yl)-1H-pyrazole-3-carboxamide]
33 | > 20 | Cc1cc(-c2cccc(-n3cc(NC(N)=O)c(C(N)=O)n3)c2)ccc1F [Example 346, 4-[(aminocarbonyl)amino]-1-(4′-fluoro-3′-methyl-1,1′-biphenyl-3-yl)-1H-pyrazole-3-carboxamide]
34 | > 20 | NC(=O)Nc1cn(-c2cccc(-c3cccc(Cl)c3)c2)nc1C(N)=O [Example 347, 4-[(aminocarbonyl)amino]-1-(3′-chloro-1,1′-biphenyl-3-yl)-1H-pyrazole-3-carboxamide]
35 | > 20 | NC(=O)Nc1cn(-c2cccc(-c3ccc(Cl)cc3)c2)nc1C(N)=O [Example 348, 4-[(aminocarbonyl)amino]-1-(4′-chloro-1,1′-biphenyl-3-yl)-1H-pyrazole-3-carboxamide]
